The results in this text go back to patent US8426437B2, “Pyrroloquinoline derivatives and their use as protein kinases inhibitors” (Pierre Fabre Medicament, priority 2005, dated 2013).

For the assay, the target named is T1, RET (Homo sapiens, UniProt P07949).
T1 construct: purchased Upstate 14-570MG
Kind of assay: Inhibition of RET kinase activity, recombinant RET method (Kinase-Glo). It is filed as biochemical. The following applies: RET 2 μg/ml, poly-EY4 substrate, 20 μM ATP, two hours at 30° C. The gist of the method: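 Recombinant RET at 2 μg/ml in 20 mM MOPS/NaOH pH 7.0, 1 mM EDTA, 5% glycerol, 0.01% Brij35, 0.1% 2-mercaptoethanol, 1 mg/ml BSA; compounds 10 nM–30 μM final.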

T1 sequence (P07949 29-1114): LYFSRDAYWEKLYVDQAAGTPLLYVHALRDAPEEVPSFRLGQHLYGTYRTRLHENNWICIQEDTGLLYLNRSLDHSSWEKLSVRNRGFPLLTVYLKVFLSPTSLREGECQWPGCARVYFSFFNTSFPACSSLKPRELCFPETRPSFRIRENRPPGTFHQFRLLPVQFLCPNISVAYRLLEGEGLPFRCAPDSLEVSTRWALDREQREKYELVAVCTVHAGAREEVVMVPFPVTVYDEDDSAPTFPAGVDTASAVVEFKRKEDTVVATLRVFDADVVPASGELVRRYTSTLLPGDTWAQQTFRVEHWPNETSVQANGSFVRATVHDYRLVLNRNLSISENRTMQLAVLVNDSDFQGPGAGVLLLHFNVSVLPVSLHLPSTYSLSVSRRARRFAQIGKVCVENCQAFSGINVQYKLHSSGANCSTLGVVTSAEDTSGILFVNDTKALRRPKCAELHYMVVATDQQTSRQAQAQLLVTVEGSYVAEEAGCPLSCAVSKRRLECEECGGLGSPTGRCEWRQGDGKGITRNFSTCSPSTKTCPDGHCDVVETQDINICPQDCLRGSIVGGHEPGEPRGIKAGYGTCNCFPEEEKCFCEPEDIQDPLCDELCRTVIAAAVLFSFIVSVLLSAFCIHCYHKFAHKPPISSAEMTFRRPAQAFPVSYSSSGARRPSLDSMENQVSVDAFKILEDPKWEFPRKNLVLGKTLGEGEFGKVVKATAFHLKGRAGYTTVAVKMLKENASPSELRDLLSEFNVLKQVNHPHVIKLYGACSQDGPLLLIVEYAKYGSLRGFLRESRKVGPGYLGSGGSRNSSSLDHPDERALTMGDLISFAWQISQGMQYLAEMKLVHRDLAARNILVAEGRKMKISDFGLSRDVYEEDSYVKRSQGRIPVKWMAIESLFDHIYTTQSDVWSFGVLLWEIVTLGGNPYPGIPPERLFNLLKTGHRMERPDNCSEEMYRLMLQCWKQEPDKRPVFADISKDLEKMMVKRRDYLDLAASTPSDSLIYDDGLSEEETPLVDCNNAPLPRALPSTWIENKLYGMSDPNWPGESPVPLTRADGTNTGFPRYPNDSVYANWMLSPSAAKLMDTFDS

As a reminder, the IC50 is the concentration that gives 50% inhibition. Take `CCOC(=O)c1c[nH]c2c(=O)[nH]c3ccc(S(=O)(=O)Cc4ccncc4)cc3c12` [Compound 195, 4-Oxo-8-(pyridin-4-ylmethanesulfonyl)-4,5-dihydro-3H-pyrrolo[2,3-c]quinoline-1-ethyl carboxylate]: the 50% inhibitory concentration (IC50) was 0.1 to 1 µM.

As to `CCOC(=O)c1c[nH]c2c(=O)[nH]c3ccc(S(=O)(=O)Cc4ccccn4)cc3c12` [Compound 196, 4-Oxo-8-(pyridin-2-ylmethanesulfonyl)-4,5-dihydro-3H-pyrrolo[2,3-c]quinoline-1-ethyl carboxylate], the IC50 was in the range of 0.1 to 1 µM.

With `CCOC(=O)c1c[nH]c2c(=O)[nH]c3ccc(S(=O)(=O)C4CCCCC4)cc3c12` [Compound 197, 8-Cyclohexanesulfonyl-4-oxo-4,5-dihydro-3H-pyrrolo[2,3-c]quinoline-1-ethyl carboxylate], the IC50 lay within 0.1 to 1 µM.

With `CCOC(=O)c1c[nH]c2c(=O)[nH]c3ccc([S+]([O-])Cc4ccccc4)cc3c12` (stereo not drawn) [Compound 198, 4-Oxo-8-phenylmethanesulfinyl-4,5-dihydro-3H-pyrrolo[2,3-c]quinoline-1-ethyl carboxylate], the half-maximal inhibitory concentration (IC50) fell in the range of 0.1 to 1 µM.

Regarding `C#Cc1ccc2[nH]c(=O)c3[nH]cc(C(=O)OCC)c3c2c1` [Compound 199, 8-Ethynyl-4-oxo-4,5-dihydro-3H-pyrrolo[2,3-c]quinoline-1-ethyl carboxylate], the half-maximal inhibitory concentration (IC50) lay within 1 to 10 µM.

Turning to `CCOC(=O)c1c[nH]c2c(=O)[nH]c3ccc(C#C[Si](C)(C)C)cc3c12` [Compound 200, 4-Oxo-8-trimethylsilanylethynyl-4,5-dihydro-3H-pyrrolo[2,3-c]quinoline-1-ethyl carboxylate], the IC50 lay within 1 to 10 µM.

As for `CCOC(=O)c1c[nH]c2c(=O)[nH]c3ccc(C#Cc4ccccc4)cc3c12` [Compound 201, 4-Oxo-8-phenylethynyl-4,5-dihydro-3H-pyrrolo[2,3-c]quinoline-1-ethyl carboxylate], the 50% inhibitory concentration (IC50) lay within 1 to 10 µM.

As for `CCOC(=O)c1c[nH]c2c(=O)[nH]c3ccc(C#Cc4ccccn4)cc3c12` [Compound 202, 4-Oxo-8 pyridin-2-ylethynyl-4,5-dihydro-3H-pyrrolo[2,3-c]quinoline-1-ethyl carboxylate], the concentration for half-maximal inhibition (IC50) was 1 to 10 µM.

In the case of `CCOC(=O)c1c[nH]c2c(=O)[nH]c3ccc(C#CCN(C)C)cc3c12` [Compound 203, 8-(3-Dimethylamino-prop-1-ynyl)-4-oxo-4,5-dihydro-3H-pyrrolo[2,3-c]quinoline-1-ethyl carboxylate], the IC50 fell in the range of 0.1 to 1 µM.

In the case of `CCOC(=O)c1c[nH]c2c(=O)[nH]c3ccc(C#CC(C)(C)O)cc3c12` [Compound 204, 8-(3-Hydroxy-3-methyl-but-1-ynyl)-4-oxo-4,5-dihydro-3H-pyrrolo[2,3-c]quinoline-1-ethyl carboxylate], the IC50 was in the range of 0.1 to 1 µM.

As for `CCOC(=O)c1c[nH]c2c(=O)[nH]c3ccc(C#CCN4CCOCC4)cc3c12` [Compound 205, 8-(3-Morpholin-4-yl-prop-1-ynyl)-4-oxo-4,5-dihydro-3H-pyrrolo[2,3-c]quinoline-1-ethyl carboxylate], the IC50 is 0.1 to 1 µM.

In the case of `CCOC(=O)c1c[nH]c2c(=O)[nH]c3ccc(C#CCN(C)CCC#N)cc3c12` [Compound 206, 8-{3-[(2-Cyano-ethylmethyl-amino]-prop-1-ynyl}-4-oxo-4,5-dihydro-3H-pyrrolo[2,3-c]quinoline-1-ethyl carboxylate], the IC50 is 0.1 to 1 µM.

As for `CCOC(=O)c1c[nH]c2c(=O)[nH]c3ccc(CCc4ccccc4)cc3c12` [Compound 207, 4-Oxo-8-phenethyl-4,5-dihydro-3H-pyrrolo[2,3-c]quinoline-1-ethyl carboxylate], the half-maximal inhibitory concentration (IC50) was 0.1 to 1 µM.

Regarding `CCOC(=O)c1c[nH]c2c(=O)[nH]c3ccc(CCC(C)(C)O)cc3c12` [Compound 208, 8-(3-Hydroxy-3-methyl-butyl)-4-oxo-4,5-dihydro-3H-pyrrolo[2,3-c]quinoline-1-ethyl carboxylate], the IC50 was in the range of 0.1 to 1 µM.

On to `CCCOC(=O)c1c[nH]c2c(=O)[nH]c3ccc(I)cc3c12` [Compound 210, 8-Iodo-4-oxo-4,5-dihydro-3H-pyrrolo[2,3-c]quinoline-1-propyl carboxylate], for which the concentration for half-maximal inhibition (IC50) lay in the range of 0.1 to 1 µM.

On to `O=C(OC1CCCC1)c1c[nH]c2c(=O)[nH]c3ccc(I)cc3c12` [Compound 211, 8-Iodo-4-oxo-4,5-dihydro-3H-pyrrolo[2,3-c]quinoline-1-cyclopentyl carboxylate], for which the IC50 was 1 to 10 µM.

With `CC(C)COC(=O)c1c[nH]c2c(=O)[nH]c3ccc(I)cc3c12` [Compound 212, 8-Iodo-4-oxo-4,5-dihydro-3H-pyrrolo[2,3-c]quinoline-1-isobutyl carboxylate], the IC50 was 1 to 10 µM.

`CCOC(=O)c1c[nH]c2c(=O)[nH]c3cc(OC)ccc3c12` [Compound 213, 7-Methoxy-4-oxo-4,5-dihydro-3H-pyrrolo[2,3-c]quinoline-1-ethyl carboxylate]: the IC50 lay in the range of 1 to 10 µM.

`CCOC(=O)c1c[nH]c2c(=O)[nH]c3cc(OC)c(I)cc3c12` [Compound 214, 8-Iodo-7-methoxy-4-oxo-4,5-dihydro-3H-pyrrolo[2,3-c]quinoline-1-ethyl carboxylate]: the IC50 fell in the range of 1 to 10 µM.

For the compound `CCOC(=O)c1c[nH]c2c(=O)[nH]c3cc(F)ccc3c12` [Compound 215, 7-Fluoro-4-oxo-4,5-dihydro-3H-pyrrolo[2,3-c]quinoline-1-ethyl carboxylate], the IC50 lay in the range of 1 to 10 µM.

Take `CCOC(=O)c1c[nH]c2c(=O)[nH]c3cc(Cl)ccc3c12` [Compound 216, 7-Chloro-4-oxo-4,5-dihydro-3H-pyrrolo[2,3-c]quinoline-1-ethyl carboxylate]: the 50% inhibitory concentration (IC50) was in the range of 1 to 10 µM.

With `CCOC(=O)c1c[nH]c2c(=O)[nH]c3ccc(C(=O)/C=C/N(C)C)cc3c12` [Compound 217, 8-(3-Dimethylamino-acryloyl)-4-oxo-4,5-dihydro-3H-pyrrolo[2,3-c]quinoline-1-ethyl carboxylate], the half-inhibitory concentration (IC50) was 0.1 to 1 µM.

For `CCOC(=O)c1c[nH]c2c(=O)[nH]c3ccc(C(=O)CN4CCOCC4)cc3c12` [Compound 218, 8-(2-Morpholin-4-yl-acetyl)-4-oxo-4,5-dihydro-3H-pyrrolo[2,3-c]quinoline-ethyl carboxylate], the IC50 lay in the range of 1 to 10 µM.

Regarding `CCOC(=O)c1c[nH]c2c(=O)[nH]c3ccc(Sc4ccccc4)cc3c12` [Compound 220, 4-Oxo-8-phenylsulfanyl-4,5-dihydro-3H-pyrrolo[2,3-c]quinoline-1-ethyl carboxylate], the concentration for half-maximal inhibition (IC50) is 0.1 to 1 µM.

As to `CCOC(=O)c1c[nH]c2c(=O)[nH]c3ccc(Sc4ccc(NC(C)=O)cc4)cc3c12` [Compound 223, 8-(4-Acetylaminophenylsulfanyl)-4-oxo-4,5-dihydro-3H-pyrrolo[2,3-c]quinoline-1-ethyl carboxylate], the concentration for half-maximal inhibition (IC50) is 0.1 to 1 µM.

On to `CCOC(=O)c1c[nH]c2c(=O)[nH]c3ccc(Sc4cccc(N)c4)cc3c12` [Compound 224, 8-(3-Aminophenylsulfanyl)-4-oxo-4,5-dihydro-3H-pyrrolo[2,3-c]quinoline-1-ethyl carboxylate], for which the half-inhibitory concentration (IC50) was 0.1 to 1 µM.

On to `CCOC(=O)c1c[nH]c2c(=O)[nH]c3ccc(Sc4cccc(NC(C)=O)c4)cc3c12` [Compound 225, 8-(3-Acetylaminophenylsulfanyl)-4-oxo-4,5-dihydro-3H-pyrrolo[2,3-c]quinoline-1-ethyl carboxylate], for which the IC50 was 0.1 to 1 µM.

Consider `CCOC(=O)c1c[nH]c2c(=O)[nH]c3ccc(-c4ccccc4)cc3c12` [Compound 228, 4-Oxo-8-phenyl-4,5-dihydro-3H-pyrrolo[2,3-c]quinoline-1-ethyl carboxylate], for which the half-maximal inhibitory concentration (IC50) was 1 to 10 µM.

As for `CCOC(=O)c1c[nH]c2c(=O)[nH]c3ccc(-c4ccccc4Cl)cc3c12` [Compound 229, 8-(2-Chlorophenyl)-4-oxo-4,5-dihydro-3H-pyrrolo[2,3-c]quinoline-1-ethyl carboxylate], the half-maximal inhibitory concentration (IC50) lay within 0.1 to 1 µM.

On to `CCOC(=O)c1c[nH]c2c(=O)[nH]c3ccc(-c4ccccc4NC(=O)OC(C)(C)C)cc3c12` [Compound 230, 8-(2-tert-Butoxycarbonylaminophenyl)-4-oxo-4,5-dihydro-3H-pyrrolo[2,3-c]quinoline-1-ethyl carboxylate], for which the IC50 lay in the range of 10 to 100 µM.

On to `CCOC(=O)c1c[nH]c2c(=O)[nH]c3ccc(-c4ccccc4N)cc3c12` [Compound 231, 8-(2-Aminophenyl)-4-oxo-4,5-dihydro-3H-pyrrolo[2,3-c]quinoline-1-ethyl carboxylate], for which the IC50 is 0.1 to 1 µM.

For `CCOC(=O)c1c[nH]c2c(=O)[nH]c3ccc(-c4ccccc4NS(C)(=O)=O)cc3c12` [Compound 232, 8-(2-Methanesulfonylaminophenyl)-4-oxo-4,5-dihydro-3-pyrrolo[2,3-c]quinoline-1-ethyl carboxylate], the concentration for half-maximal inhibition (IC50) was in the range of 0.1 to 1 µM.

With `CCOC(=O)c1c[nH]c2c(=O)[nH]c3ccc(-c4cccc(NC(=O)OC(C)(C)C)c4)cc3c12` [Compound 233, 8-(3-tert-Butoxycarbonylaminophenyl)-4-oxo-4,5-dihydro-3H-pyrrolo[2,3-c]quinoline-1-ethyl carboxylate], the IC50 lay within 1 to 10 µM.

Turning to `CCOC(=O)c1c[nH]c2c(=O)[nH]c3ccc(-c4cccc(NS(C)(=O)=O)c4)cc3c12` [Compound 235, 8-(3-Methanesulfonylaminophenyl)-4-oxo-4,5-dihydro-3H-pyrrolo[2,3-c]quinoline-1-ethyl carboxylate], the IC50 is 0.1 to 1 µM.

Regarding `CCOC(=O)c1c[nH]c2c(=O)[nH]c3ccc(-c4cccc(NC(C)=O)c4)cc3c12` [Compound 236, 8-(3-Acetylaminophenyl)-4-oxo-4,5-dihydro-3H-pyrrolo[2,3-c]quinoline-1-ethyl carboxylate], the concentration for half-maximal inhibition (IC50) fell in the range of 0.1 to 1 µM.

In the case of `CCOC(=O)c1c[nH]c2c(=O)[nH]c3ccc(-c4cccc(C#N)c4)cc3c12` [Compound 239, 8-(3-Cyano-phenyl)-4-oxo-4,5-dihydro-3H-pyrrolo[2,3-c]quinoline-1-ethyl carboxylate], the IC50 is 0.1 to 1 µM.
